Key:
[1] = Commercial tetrazolium compounds, detection of iron corrosion (Example 4); conditions: 0.1 percent solution, one percent sodium chloride
[2] = Corrosion detection under typical cooling water conditions in recirculation tank (Example 7); conditions: continuous 4 ppm feed from day 4, Inhibitor A
[3] = Water solubility of reduced form (formazan); format: physicochemical; conditions: formazan of the synthesized tetrazolium compound
Description: Because the reduced forms of the commercially available tetrazolium salts tested in Example 4 are insoluble, they would present a measurement problem when used in an actual corrosion detection test. The reduced form (the formazan) would precipitate at the corrosion site and be difficult to detect quantitatively in the water sample taken far from the corrosion site. Introduction of a functional group to give water solubility to the reduced form was done to eliminate this problem. Examples of such functional groups are carboxy (COOH), hydroxy (OH), sulfonic (OSO3 H), amino (NH2), etc. These could be introduced on any of the three "R" groups in the generalized tetrazolium structure given below by choosing the appropriate organic compound to be used in the synthesis. [drawing 4]

Row | Structure (SMILES) | Time to Color [1] [min] | Formazan level, stabilized [2] | Water solubility of formazan formed [3]
1 | c1ccc(-c2nn(-c3ccccc3)[n+](-c3ccc(-c4ccc(-[n+]5nc(-c6ccccc6)nn5-c5ccccc5)cc4)cc3)n2)cc1 [Compound 8 (Table 6), 2,2',5,5'-tetraphenyl-3,3'(p-diphenylene)ditetrazolium chloride] | 35 | – | –
2 | O=C(O)c1ccc(-n2nc(-c3ccccc3)n[n+]2-c2ccccc2)cc1 [tetrazolium compound, 2-(p-carboxyphenyl)-3,5-diphenyltetrazolium bromide] | – | 2-3 ppb | water soluble

Reference: patent US4758312A, “Method for in situ corrosion detection using electrochemically active compounds” (Nalco Chemical Company, priority 1987, dated 1988)
